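Method: 48-hour compound exposure of cells in 96-well plates, five concentrations, linear interpolation of endpoints. GI50 is the concentration that inhibits growth by half. TGI marks complete inhibition of growth.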
What was measured:
Test in all cases: NCI tumour cell line growth inhibition, 48 h
PC-3 prostate = system: PC-3 prostate
SW-620 colon = system: SW-620 colon
SN12C renal = system: SN12C renal
SF-268 CNS = system: SF-268 CNS
MOLT-4 leukemia = system: MOLT-4 leukemia
BT-549 breast = system: BT-549 breast
SK-MEL-5 melanoma = system: SK-MEL-5 melanoma
HCT-15 colon = system: HCT-15 colon
NCI/ADR-RES ovarian = system: NCI/ADR-RES ovarian
MDA-MB-435 = system: MDA-MB-435
SK-MEL-28 melanoma = system: SK-MEL-28 melanoma
U251 CNS = system: U251 CNS
UO-31 renal = system: UO-31 renal
HOP-62 NSCLC = system: HOP-62 NSCLC
HCT-116 colon = system: HCT-116 colon
OVCAR-8 ovarian = system: OVCAR-8 ovarian
A549 NSCLC = system: A549 NSCLC
NCI-H522 lung = system: NCI-H522 lung
SF-295 CNS = system: SF-295 CNS
IGROV1 ovarian = system: IGROV1 ovarian
LOX IMVI melanoma = system: LOX IMVI melanoma
SK-MEL-2 melanoma = system: SK-MEL-2 melanoma
CAKI-1 renal = system: CAKI-1 renal
OVCAR-3 ovarian = system: OVCAR-3 ovarian
SR leukemia = system: SR leukemia
SF-539 CNS = system: SF-539 CNS
SNB-75 CNS = system: SNB-75 CNS
MCF7 breast = system: MCF7 breast
UACC-62 melanoma = system: UACC-62 melanoma
ACHN renal = system: ACHN renal
COLO 205 colon = system: COLO 205 colon
EKVX NSCLC = system: EKVX NSCLC
NCI-H23 lung = system: NCI-H23 lung
HT29 colon = system: HT29 colon
K-562 leukemia = system: K-562 leukemia
SNB-19 CNS = system: SNB-19 CNS
HOP-92 NSCLC = system: HOP-92 NSCLC
OVCAR-4 ovarian = system: OVCAR-4 ovarian
DU-145 prostate = system: DU-145 prostate
OVCAR-5 ovarian = system: OVCAR-5 ovarian
A498 renal = system: A498 renal
NCI-H226 lung = system: NCI-H226 lung
786-0 renal = system: 786-0 renal
M14 melanoma = system: M14 melanoma
SK-OV-3 ovarian = system: SK-OV-3 ovarian
MDA-MB-231 breast = system: MDA-MB-231 breast
RXF 393 renal = system: RXF 393 renal
NCI-H460 lung = system: NCI-H460 lung
HS 578T breast = system: HS 578T breast
HL-60(TB) leukemia = system: HL-60(TB) leukemia
UACC-257 melanoma = system: UACC-257 melanoma
RPMI-8226 leukemia = system: RPMI-8226 leukemia

## Clc1ccc(-c2nc(-c3ccccc3)cn3ccnc23)cc1
PC-3 prostate
  GI50: 14.2 µM
  TGI: 53.7 µM
SW-620 colon
  GI50: 4.75 µM
  TGI: 41.1 µM
SN12C renal
  GI50: 21.3 µM
  TGI: > 100 µM
SF-268 CNS
  GI50: 10.6 µM
  TGI: 33 µM
MOLT-4 leukemia
  GI50: 5.89 µM
  TGI: > 100 µM
BT-549 breast
  GI50: 11.3 µM
  TGI: 34.3 µM
SK-MEL-5 melanoma
  GI50: 7.3 µM
  TGI: 27.2 µM
HCT-15 colon
  GI50: 1.8 µM
  TGI: 18 µM
NCI/ADR-RES ovarian
  GI50: 6.53 µM
  TGI: 25.9 µM
MDA-MB-435
  GI50: 1.43 µM
  TGI: 7.52 µM
SK-MEL-28 melanoma
  GI50: 14.9 µM
  TGI: 58.3 µM
U251 CNS
  GI50: 6.61 µM
  TGI: 19.9 µM
UO-31 renal
  GI50: 20.2 µM
  TGI: > 100 µM
HOP-62 NSCLC
  GI50: 16.1 µM
  TGI: 52.5 µM
HCT-116 colon
  GI50: 6.39 µM
  TGI: 21.5 µM
OVCAR-8 ovarian
  GI50: 20.6 µM
  TGI: 57.2 µM
A549 NSCLC
  GI50: 11 µM
  TGI: 29 µM
NCI-H522 lung
  GI50: > 100 µM
  TGI: > 100 µM
SF-295 CNS
  GI50: 3.1 µM
  TGI: 16.7 µM
IGROV1 ovarian
  GI50: 15.5 µM
  TGI: > 100 µM
LOX IMVI melanoma
  GI50: 5.1 µM
  TGI: 19.5 µM
SK-MEL-2 melanoma
  GI50: 53.4 µM
  TGI: > 100 µM
CAKI-1 renal
  GI50: 1.49 µM
  TGI: 17.7 µM
OVCAR-3 ovarian
  GI50: 1.82 µM
  TGI: 16.8 µM
SR leukemia
  GI50: 0.627 µM
  TGI: > 100 µM
SF-539 CNS
  GI50: 11.7 µM
  TGI: 31.8 µM
SNB-75 CNS
  GI50: 13 µM
  TGI: 72 µM
MCF7 breast
  GI50: 7.16 µM
  TGI: > 100 µM
UACC-62 melanoma
  GI50: 17.7 µM
  TGI: 70 µM
ACHN renal
  GI50: 11.4 µM
  TGI: 26.1 µM
COLO 205 colon
  GI50: 18.6 µM
  TGI: > 100 µM
EKVX NSCLC
  GI50: 10 µM
  TGI: 48.8 µM
NCI-H23 lung
  GI50: 12.5 µM
  TGI: 36.4 µM
HT29 colon
  GI50: 7.45 µM
  TGI: 56.7 µM
K-562 leukemia
  GI50: 2.65 µM
  TGI: > 100 µM
SNB-19 CNS
  GI50: 25.6 µM
  TGI: > 100 µM
HOP-92 NSCLC
  GI50: 11.1 µM
  TGI: 32.7 µM
OVCAR-4 ovarian
  GI50: 14.6 µM
  TGI: 51.3 µM
DU-145 prostate
  GI50: 11.9 µM
  TGI: 34.9 µM
OVCAR-5 ovarian
  GI50: 15.7 µM
  TGI: 44.7 µM
A498 renal
  GI50: 0.836 µM
  TGI: 16.1 µM
NCI-H226 lung
  GI50: 74.7 µM
  TGI: > 100 µM
786-0 renal
  GI50: 14 µM
  TGI: 37.3 µM
M14 melanoma
  GI50: 10.6 µM
  TGI: 27.4 µM
SK-OV-3 ovarian
  GI50: 32 µM
  TGI: > 100 µM
MDA-MB-231 breast
  GI50: 12.3 µM
  TGI: 55.5 µM
RXF 393 renal
  GI50: 2.72 µM
  TGI: 28.6 µM
NCI-H460 lung
  GI50: 20.2 µM
  TGI: > 100 µM
HS 578T breast
  TGI: 17 µM
HL-60(TB) leukemia
  GI50: 5.05 µM
  TGI: > 100 µM
UACC-257 melanoma
  GI50: 20 µM
  TGI: 46.5 µM
RPMI-8226 leukemia
  GI50: 3.44 µM
  TGI: 31.2 µM

— PubChem BioAssay (NCI)
